Measurements from US10703756B2, “Pyrrolo[2,3-D]pyrimidinyl, pyrrolo[2,3-B]pyrazinyl, pyrrolo[2,3-B]pyridinyl acrylamides and epoxides thereof” (Pfizer Inc., priority 2015, dated 2020).
pIC50: −log10 of the molar value. Where two headings read alike, the source gives them in different places. Blank lines part the entries; values can stand above or below the molecule they belong to.

Experiments:
JAK3 enzyme [1] = biological target: T1, JAK3 enzyme (Homo sapiens, UniProt P52333); experiment: JAK Caliper Enzyme Assay at 1 mM ATP; assay type: biochemical
T1 sequence (P52333 1-1124): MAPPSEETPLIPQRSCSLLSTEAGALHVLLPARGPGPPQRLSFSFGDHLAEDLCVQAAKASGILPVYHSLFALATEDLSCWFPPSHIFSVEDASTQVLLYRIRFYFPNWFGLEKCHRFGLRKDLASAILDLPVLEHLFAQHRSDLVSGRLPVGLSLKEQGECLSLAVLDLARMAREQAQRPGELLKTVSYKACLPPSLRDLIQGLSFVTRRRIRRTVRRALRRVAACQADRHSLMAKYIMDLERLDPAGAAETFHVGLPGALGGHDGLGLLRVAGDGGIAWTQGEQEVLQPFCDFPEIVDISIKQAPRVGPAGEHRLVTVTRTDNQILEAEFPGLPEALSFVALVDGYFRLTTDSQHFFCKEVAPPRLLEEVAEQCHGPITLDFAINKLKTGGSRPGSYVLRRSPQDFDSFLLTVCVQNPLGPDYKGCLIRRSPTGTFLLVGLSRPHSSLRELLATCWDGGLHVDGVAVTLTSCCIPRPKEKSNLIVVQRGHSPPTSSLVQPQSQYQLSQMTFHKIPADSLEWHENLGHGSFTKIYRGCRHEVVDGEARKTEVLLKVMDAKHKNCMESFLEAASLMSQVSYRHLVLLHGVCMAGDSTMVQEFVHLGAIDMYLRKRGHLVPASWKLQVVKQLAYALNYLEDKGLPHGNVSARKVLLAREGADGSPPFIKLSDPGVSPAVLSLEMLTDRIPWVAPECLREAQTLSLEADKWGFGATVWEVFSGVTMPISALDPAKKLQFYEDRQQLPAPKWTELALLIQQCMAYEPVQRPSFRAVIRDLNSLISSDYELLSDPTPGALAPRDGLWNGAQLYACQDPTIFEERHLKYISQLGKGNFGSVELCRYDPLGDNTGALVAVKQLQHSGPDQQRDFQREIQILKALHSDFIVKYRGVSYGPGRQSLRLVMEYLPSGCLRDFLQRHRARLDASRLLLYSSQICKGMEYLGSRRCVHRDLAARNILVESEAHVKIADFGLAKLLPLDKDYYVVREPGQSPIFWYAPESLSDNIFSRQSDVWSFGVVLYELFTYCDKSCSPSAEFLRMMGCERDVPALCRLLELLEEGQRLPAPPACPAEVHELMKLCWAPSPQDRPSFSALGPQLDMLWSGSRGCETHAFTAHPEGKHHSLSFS
Outline: (§1)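 First, compound stocks in DMSO were serially diluted half-log over 11 points, starting at 600 μM. Next, reactions ran with batch-optimized enzyme and timing targeting 20%-30% phosphorylation. Finally, wells were sampled and product separated from substrate peptide electrophoretically.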

JAK3 enzyme [2] = biological target: T1, JAK3 enzyme; experiment: JAK Caliper Enzyme Assay at 4 μM ATP; assay type: biochemical
Outline: as §1

[3] = system: IL-15 induced P-STAT5 in human PBMC; experiment: PBMC IL-15 Induced P-STAT5; assay type: cell-based; settings: for pIC50: human PBMC, IL-15 final 41 ng/mL, read-out: PBMC IL15_pSTAT5_IC50; for IC50: Homo sapiens, PBMC, read-out: PBMC IL15_pSTAT5_IC50 (nM)
Outline: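 Thawed human PBMC, rested in human plasma, were preincubated 15 min at 37 °C with compound (0.2% DMSO), then stimulated 15 min with IL-15 at 41 ng/mL final. After paraformaldehyde fixation and methanol permeabilisation, Alexa Fluor 647 anti-STAT5 staining overnight at 4 °C was analysed by flow cytometry on total lymphocytes.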

[4] = Stability of JAK3 Covalent Inhibitors in Human Whole Blood; assay type: in vitro ADME; settings: 1 μM test compound, 37° C., 180 min incubation; for half-life at 1 μM: both sexes, read-out: Human blood stability t1/2
Protocol: Stability of JAK3 Covalent Inhibitors in Rat and Human Whole Blood
Rat blood was collected from 3 male Sprague-Dawley rats (200-250 g, Charles River Laboratories) and pooled for each study. Human blood was collected from healthy subjects at the Occupational Health & Wellness Center at Pfizer, Groton, Conn. and pooled for each study. Both rat and human blood was collected freshly into K2-EDTA tubes and kept on ice. An aliquot of the blood was transferred to microtubes and pre-warmed for 10 min at 37° C. using a heat block. The test compound was then added (1 μM final concentration) and the incubation was continued for 180 min at 37° C. in duplicates. An aliquot of the incubation mixture was removed at designated time points during the course of the incubation, mixed with an aliquot of acetonitrile containing an internal standard, vortexed and centrifuged. The resulting supernatants were removed and subjected to LC-MS/MS analyses to determine parent compound concentrations. Peak area ratios of the parent compound vs the internal standard were used to determine the % of parent compound remaining vs incubation time.

SMILES: C=CC(=O)N1CC[C@@H](Nc2cnc3[nH]cc(C(=O)NCC)c3n2)[C@H](O)C1 (single isomer, unassigned) [Example 33]
pIC50 (JAK3 enzyme [1]): 7.47
pIC50 (JAK3 enzyme [2]): 9.64
pIC50 [3]: 5.55
half-life at 1 μM [4]: 3.47 h

SMILES: C=CC(=O)N1CC[C@H](Nc2cnc3[nH]cc(C(=O)NCC)c3n2)[C@@H](C)C1 (single isomer, unassigned) [Example 45]
pIC50 (JAK3 enzyme [1]): 7.24
pIC50 (JAK3 enzyme [2]): 9.41
pIC50 [3]: 6.34
half-life at 1 μM [4]: 3.37 h

SMILES: C=CC(=O)N1CC[C@H](Nc2cnc3[nH]cc(C(=O)N[C@H](C)COC)c3n2)C[C@@H]1C (single isomer, unassigned) [Example 57]
pIC50 (JAK3 enzyme [1]): 6.62
pIC50 (JAK3 enzyme [2]): 8.35
IC50 [3]: 3220 nM
half-life at 1 μM [4]: > 6 h

SMILES: C=CC(=O)N1CC[C@@H](Nc2cnc3[nH]cc(C(=O)N[C@H](C)COC)c3n2)C[C@H]1C (single isomer, unassigned) [Example 58]
pIC50 (JAK3 enzyme [1]): 6.55
pIC50 (JAK3 enzyme [2]): 8.56
IC50 [3]: 4740 nM
half-life at 1 μM [4]: > 6 h

SMILES: C=CC(=O)N1C[C@H](Nc2cnc3[nH]cc(C(=O)N[C@H](C)COC)c3n2)CC[C@@H]1C (single isomer, unassigned) [Example 69]
pIC50 (JAK3 enzyme [1]): 6.86
pIC50 (JAK3 enzyme [2]): 9.11
pIC50 [3]: 5.58
half-life at 1 μM [4]: > 6 h

SMILES: C=CC(=O)N1C[C@@H](Nc2cnc3[nH]cc(C(=O)NCC)c3n2)CC[C@H]1C (single isomer, unassigned) [Example 75]
pIC50 (JAK3 enzyme [1]): 6.50
pIC50 (JAK3 enzyme [2]): 8.80
pIC50 [3]: 5.64
half-life at 1 μM [4]: > 6 h

SMILES: C=CC(=O)N1CC(Nc2cnc3[nH]cc(C(=O)NCC)c3n2)CCC1C (single isomer, unassigned) [Example 76]
pIC50 (JAK3 enzyme [1]): 6.87
pIC50 (JAK3 enzyme [2]): 9.25
pIC50 [3]: 5.94
half-life at 1 μM [4]: > 6 h

SMILES: C=CC(=O)N1C[C@@H](COCCC#N)C[C@@H](Nc2ncnc3[nH]ccc23)C1 (single isomer, unassigned) [Example 100]
pIC50 (JAK3 enzyme [1]): 5.57
pIC50 (JAK3 enzyme [2]): 7.12
pIC50 [3]: < 5.00
Human blood stability t1/2 [4]: 3.52 h

SMILES: C=CC(=O)N1C[C@@H](Nc2ncnc3[nH]ccc23)CC[C@@H]1[C@@H](C)O (single isomer, unassigned) [Example 111]
pIC50 (JAK3 enzyme [1]): 7.11
pIC50 (JAK3 enzyme [2]): 9.07
pIC50 [3]: 6.27
half-life at 1 μM [4]: 2.87 h

SMILES: C=CC(=O)N1CC[C@@H](Nc2cnc3[nH]cc(C(=O)N[C@@H](C)COC)c3n2)C[C@H]1C (stereo in doubt) [Example 56, 2-{[(2R,4R)-1-acryloyl-2-methylpiperidin-4-yl]amino}-N-[(2S)-1-methoxypropan-2-yl]-5H-pyrrolo[2,3-b]pyrazine-7-carboxamide]
pIC50 (JAK3 enzyme [1]): 7.15
pIC50 (JAK3 enzyme [2]): 9.03
IC50 [3]: 1600 nM
half-life at 1 μM [4]: > 6 h

SMILES: C=CC(=O)N1CCC(Nc2cnc3[nH]cc(C(=O)NCCCC(F)(F)F)c3n2)C1 (stereo in doubt) [Example 237, 2-{[(3S)-1-acryloylpyrrolidin-3-yl]amino}-N-(4,4,4-trifluorobutyl)-5H-pyrrolo[2,3-b]pyrazine-7-carboxamide]
pIC50 (JAK3 enzyme [1]): 7.25
pIC50 (JAK3 enzyme [2]): 9.60
pIC50 [3]: 6.11
half-life at 1 μM [4]: 4.32 h

SMILES: C=CC(=O)N1CCC(N(C)c2cnc3[nH]cc(C(=O)NCC)c3n2)CC1 [Example 60, 2-[(1-acryloylpiperidin-4-yl)(methyl)amino]-N-ethyl-5H-pyrrolo[2,3-b]pyrazine-7-carboxamide]
pIC50 (JAK3 enzyme [1]): 6.89
pIC50 (JAK3 enzyme [2]): 9.35
pIC50 [3]: 6.42
half-life at 1 μM [4]: 2.97 h

More lines, in order of rising pIC50 (JAK3 enzyme [1]), values ahead:

pIC50 (JAK3 enzyme [1]): 5.88
pIC50 (JAK3 enzyme [2]): 7.85
half-life at 1 μM [4]: > 6 h
SMILES: C=CC(=O)N1CC[C@@H](Oc2cnc3[nH]cc(C(=O)NCC)c3n2)C1 [Example 87, (R)-2-[(1-acryloylpyrrolidin-3-yl)oxy]-N-ethyl-5H-pyrrolo[2,3-b]pyrazine-7-carboxamide]
pIC50 [3]: 5.19

pIC50 (JAK3 enzyme [1]): 6.23
pIC50 (JAK3 enzyme [2]): 8.62
half-life at 1 μM [4]: > 6 h
SMILES: C=CC(=O)N1C[C@@H](O)C[C@@H](Nc2ncnc3[nH]cc(C#N)c23)C1 [Example 113, 4-{[(3R,5S)-1-Acryloyl-5-hydroxypiperidin-3-yl]amino}-7H-pyrrolo[2,3-d]pyrimidine-5-carbonitrile]
pIC50 [3]: 5.71

pIC50 (JAK3 enzyme [1]): 6.50
pIC50 (JAK3 enzyme [2]): 8.74
half-life at 1 μM [4]: > 6 h
SMILES: C=CC(=O)N1CC[C@H](Oc2cnc3[nH]cc(C(=O)NCC)c3n2)C[C@H]1C (single isomer, unassigned) [Example 78]
pIC50 [3]: 6.03

pIC50 (JAK3 enzyme [1]): 6.69
pIC50 (JAK3 enzyme [2]): 8.99
half-life at 1 μM [4]: > 6 h
SMILES: C=CC(=O)N1CC[C@H](Nc2cnc3[nH]cc(C(=O)NCC)c3n2)[C@H](C)C1 (single isomer, unassigned) [Example 39]
pIC50 [3]: 5.62

pIC50 (JAK3 enzyme [1]): 6.82
pIC50 (JAK3 enzyme [2]): 8.99
half-life at 1 μM [4]: 2.78 h
SMILES: C=CC(=O)N1CC[C@H](Oc2cnc3[nH]cc(C(=O)N[C@@H](C)COC)c3n2)C1 [Example 52, 2-{[(3S)-1-acryloylpyrrolidin-3-yl]oxy}-N-[(2S)-1-methoxypropan-2-yl]-5H-pyrrolo[2,3-b]pyrazine-7-carboxamide]
pIC50 [3]: 6.20

pIC50 (JAK3 enzyme [1]): 6.82
pIC50 (JAK3 enzyme [2]): 8.90
half-life at 1 μM [4]: 1.76 h
SMILES: C=CC(=O)N1C[C@@H](CO)C[C@@H](Nc2ncnc3[nH]ccc23)C1 (single isomer, unassigned) [Example 98]
pIC50 [3]: 6.03

pIC50 (JAK3 enzyme [1]): 6.85
pIC50 (JAK3 enzyme [2]): 9.23
half-life at 1 μM [4]: > 6 h
SMILES: C=CC(=O)N1CC[C@@H](Nc2cnc3[nH]cc(C(=O)NCC)c3n2)C1 (single isomer, unassigned) [Example 243]
pIC50 [3]: 5.76

pIC50 (JAK3 enzyme [1]): 6.86
pIC50 (JAK3 enzyme [2]): 9.07
half-life at 1 μM [4]: > 6 h
SMILES: C=CC(=O)N1CC[C@H](Nc2cnc3[nH]cc(C(=O)NCC)c3n2)[C@@H](O)C1 (single isomer, unassigned) [Example 32]
pIC50 [3]: 5.04

pIC50 (JAK3 enzyme [1]): 7.04
pIC50 (JAK3 enzyme [2]): 8.96
half-life at 1 μM [4]: > 6 h
SMILES: C=CC(=O)N1CCC[C@H](Oc2cnc3[nH]cc(C(=O)N[C@@H](C)COC)c3n2)C1 [Example 50, 2-{[(3S)-1-acryloylpiperidin-3-yl]oxy}-N-[(2S)-1-methoxypropan-2-yl]-5H-pyrrolo[2,3-b]pyrazine-7-carboxamide]
pIC50 [3]: 6.37

pIC50 (JAK3 enzyme [1]): 7.10
pIC50 (JAK3 enzyme [2]): 8.95
half-life at 1 μM [4]: 2.77 h
SMILES: C=CC(=O)N1CC[C@H](Oc2cnc3[nH]cc(C(=O)N[C@@H](C)COC)c3n2)C[C@H]1C (single isomer, unassigned) [Example 72]
pIC50 [3]: 6.38

pIC50 (JAK3 enzyme [1]): 7.60
pIC50 (JAK3 enzyme [2]): 9.29
half-life at 1 μM [4]: > 6 h
SMILES: C=CC(=O)N1C[C@@H](Nc2cnc3[nH]cc(C(=O)N[C@@H](C)COC)c3n2)CC[C@H]1C (single isomer, unassigned) [Example 67]
pIC50 [3]: 6.36

pIC50 (JAK3 enzyme [1]): 7.64
pIC50 (JAK3 enzyme [2]): 9.91
half-life at 1 μM [4]: 4.58 h
SMILES: C=CC(=O)N1CCC(Nc2cnc3[nH]cc(C(=O)NCC(C)C)c3n2)C1 (stereo in doubt) [Example 256, 2-{[(3S)-1-acryloylpyrrolidin-3-yl]amino}-N-(2-methylpropyl)-5H-pyrrolo[2,3-b]pyrazine-7-carboxamide]
pIC50 [3]: 6.27
